# Tested on: Plasmodium falciparum
# Assay: GSK_TCMDC: Inhibition of Plasmodium falciparum 3D7 in whole erythrocytes, using parasite LDH activity as an index of growth.
# Assay type: functional, organism-based
# Settings: Plasmodium falciparum, 3D7
row,SMILES,XC50 [nM]
1,Cc1noc(=O)c2ccc(NC(=O)C(O)(CSc3ccccc3)CC(C)C)cc12 (configuration not stated),722
2,CC(=O)C1=NN(c2ccc(Cl)cc2)C(c2cccs2)N1c1ccccc1 (configuration not stated),397
3,CCOc1ccccc1C=CC(=O)Nc1ccc2nc(N3CCN(C)CC3)cc(C)c2c1,273
4,COc1ccc(NS(=O)(=O)c2cc(NC(=O)Cn3ccccc3=O)ccc2N2CCCCC2)cc1,695
5,O=C(c1cc2nc3c(c(C(F)(F)F)n2n1)CCc1ccccc1-3)N1CCN2CCCC2C1 (configuration not stated),947
6,CC(C)C(NC(=O)Cc1cccc2ccccc12)C(=O)Nc1cccc(C#N)c1 (configuration not stated),656
7,CC(NC(C)c1cccc(Cl)c1)C(=O)Nc1cc(C(F)(F)F)ccc1N1CCOCC1 (configuration not stated),1090
8,COC(=O)[C@@H](NC(=O)[C@H](Cc1ccc(OC)c(OC)c1)Nc1ccc(C#N)c2ccccc12)c1ccc(O)cc1,751
9,O=C(N[C@H](CC1CCCCC1)C(=O)NC1CCCc2ccccc21)c1ccc(O)c(-c2cccc([N+](=O)[O-])c2)c1 (some centres not stated),610
10,COc1cccc(-c2cnc(N)c(-c3nc4ccc(F)cc4[nH]3)c2)c1,850
11,FC(F)(F)c1ccc2[nH]c(-c3cccc(-c4cccc(CNCCc5ccncc5)c4)c3)nc2c1,141
12,CCN(CC)CCOc1ccc(N(Cc2ccc(C(C)(C)C)cc2)C(=O)c2ccc(Cc3ccccc3)cc2)cc1OC,773
13,CN(C)CCCOc1ccccc1CN1CC[C@H](NC(=O)c2ccc(Cl)c(Cl)c2)C1,1110
14,Cn1nc(-c2cccc(CN[C@@H]3CCc4ccc(O)cc43)c2)c2cnc(NC3CCCC3)nc21,736
15,CN(C)CCNc1cc(-c2cccnc2)nc(-c2ccncc2)n1,596
16,CCC(C)c1ccc(NC(=O)Nc2ccc(Cn3ncc(N4CCCNCC4)c(Cl)c3=O)cc2)cc1 (configuration not stated),1030
17,N#Cc1ccc2c(c1)CCN(CCC1CCC(NC(=O)c3cc4cccc(Cl)c4[nH]3)CC1)CC2 (configuration not stated),576
18,COc1cc(NC(=O)c2cc([N+](=O)[O-])ccc2NC(=O)CNC2CCCC(C)C2C)cc(OC)c1 (configuration not stated),1040
19,O=C(Nc1ccc2c(c1)CNCC2)c1ccc(-c2ccc(Cl)cc2)cc1,662
20,CN(C(=O)/C=C/c1c(Cl)cccc1Cl)C1CCN(CCCCCNC(=O)/C=C/c2ccc(Cl)c(Cl)c2)CC1,360
21,CC(C)(C)c1ccc(CNCC(C)(C)c2nc(-c3ccnc(N)n3)c(-c3ccc(Cl)c(O)c3)[nH]2)cc1,697
22,Cc1ccc(NC(=O)c2ccc(N3CCN(c4ccncc4)CC3)cc2)cc1F,736
23,CCCCC(CC)CN1C(=O)C(c2ccccc2)(c2ccccc2)N=C1N (configuration not stated),189
24,Clc1ccc(Nc2nc(Nc3ccc(Cl)c(Cl)c3)nc(Sc3nc4ccccc4[nH]3)n2)cc1Cl,490
25,CCCCCCN1CCC(NCc2cccc(-n3ccnc3)c2)CC1,255

row,SMILES,XC50 [nM]
1,O=C1COc2ccccc2N1C/C=C(\CN1CCC(c2ccccc2)CC1)c1cc(Cl)cc(Cl)c1,215
2,CC1CCN(C(=O)C(Cc2c[nH]c3ccccc23)NS(=O)(=O)c2ccc(Cl)cc2)CC1 (configuration not stated),717
3,CC(=O)Nc1[nH]c(-c2ccccc2)nc1C(N)=O,249
4,COc1cc(NC(=O)N2CCOC(CCN3CCC(c4ccccc4)CC3)(c3ccc(Cl)c(Cl)c3)C2)cc(OC)c1OC (configuration not stated),65.1
5,Cc1nc(C)c(-c2ccc(Oc3ccc([S+](C)[O-])cc3)cc2)c(O)c1Br (configuration not stated),765
6,COc1ccc(CCNC(=O)c2cnc3c(c2)nc(-c2c[nH]c(-c4ccccc4)n2)n3CCc2c[nH]cn2)cc1,970
7,CC(=O)Nc1ccc(C(=O)Nc2cccc(-c3ccc(-c4nc5cccc(C)c5[nH]4)cc3)c2)cn1,191
8,CCOC(=O)C(CO)NC(=O)c1ccc([N+](=O)[O-])o1 (configuration not stated),289
9,COc1ccc(CCCCN2C(=O)C(c3ccccc3)(c3ccccc3)N=C2N)cc1,858
10,COc1ccc(Cn2ncc3c4c(N)nc(N)nc4ccc32)cc1OC,3.2
11,COc1ccc(CNc2nccc3ccc(-c4ccc(N)nc4)cc23)cc1,979
12,CN(C)CCN(C)Cc1ccc(-c2cccc(NC(=O)c3ccc(Cl)cc3)c2)cc1,558
13,Cc1cccc2nc(-c3cccc(-c4ccc(NC(=O)NCc5cccc(F)c5)cc4)c3)[nH]c12,236
14,CNCc1ccc(CN(C)c2nc(N)c3cc(OC)c(OC)cc3n2)cc1,1030
15,CCc1cn(CC(=O)N(CCOc2ccc(-c3ccc(C(F)(F)F)cc3)cc2)CCN(CC)CC)c(SCc2ccc(F)cc2)nc1=O,777
16,COc1cccc(NC(=O)[C@H](C(C)C)n2c(=O)[nH]c3ccccc3c2=O)c1,266
17,CCC(CC)(CCC#N)CN(C[C@@H](O)[C@H](Cc1ccccc1)NC(=O)OC(C)(C)C)S(=O)(=O)c1ccc(OC)cc1,1040
18,CC(C)c1cc(N)c2cc(NC(=O)COCC(=O)Nc3ccc4nc(C(C)C)cc(N)c4c3)ccc2n1,216
19,Cc1[nH]c(C)c(-c2ccc(OCc3cc(C(F)(F)F)cc(C(F)(F)F)c3)nc2)c(=O)c1Br,152
20,COc1ccc(Nc2c3ccc(Cl)cc3nc3ccc(OC)cc23)cc1,441
21,COc1ccc(S(=O)(=O)N2CCC(NS(=O)(=O)c3ccc(F)cc3)CC2)cc1,1330
22,O=C(c1cccc(-c2noc(C(F)(F)F)n2)c1)N1CCN(c2nsc3ccccc23)CC1,145
23,CC(C)NCc1ccc(-c2ccc(NC(=O)c3ccc(Cl)cc3)cc2)cc1,910
24,Cc1ccc(-c2nnc(-c3ccc(C(=O)NC4CCN(Cc5ccc(C#N)cc5)CC4)cc3)o2)cc1Br,852
25,CN(C)c1ccc2c(c1)Sc1cc(N(C)C)ccc1N2C(=O)CCCC(=O)O,802

row,SMILES,XC50 [nM]
1,N#Cc1ccc(-c2ccc3nc(N4CCCN(C5CCC5)CC4)ccc3c2)cc1,1500
2,CC(=O)N(Cc1ccc(-c2ccc(CNCCc3ccccc3)cc2)cc1)C1CCN(Cc2ccccc2)CC1,939
3,CCC(O)(C#Cc1c(C)nc(N)nc1N)CC,639
4,N#Cc1ccc2c(c1)CCN(CCC1CCC(NC(=O)/C=C/c3cccc4cc[nH]c34)CC1)CC2 (configuration not stated),1090
5,O=C(Nc1ccc(-c2cccc(-c3nc4ccccc4[nH]3)c2)cc1)Nc1ccsc1,246
6,Cc1[nH]c(C)c(-c2ccc(/C=C/c3ccccn3)cc2)c(=O)c1Cl,516
7,Cn1nc(-c2ccc(NC(=O)Nc3ccc4ccccc4c3)c(F)c2)c2cnc(NCCN3CCOCC3)nc21,1020
8,CCc1cc([C@H]2O[C@@H](n3cnc4c(NCC(c5ccccc5)c5ccccc5)nc(NCCNc5ccccn5)nc43)[C@H](O)[C@@H]2O)on1,891
9,NC1CCN(c2nc(NCCCc3ccc(O)cc3)nc(NCc3ccccc3-c3ccc(C(F)(F)F)cc3)n2)CC1,727
10,CCC(CC(C)C(=O)O)=C(c1ccccc1)c1ccccc1 (configuration not stated),224
11,N=C(N)NN=CC(=O)Nc1ccc(Br)cc1,884
12,Cc1ccccc1Nc1nc(NCCc2ccccc2)nc2ccccc12,1260
13,COC(=O)c1ccc2nc(-c3ccc(/C=C/C(=O)NC4CCN(Cc5ccccc5)CC4)cc3)[nH]c2c1,711
14,Clc1ccccc1C=NN=c1cc[nH]c2ccccc12,850
15,COc1ccc2[nH]c3ccccc3c(=O)c2c1,1000
16,COc1ccc(NC(=O)Nc2ccc(C)c(-c3ccc(C(=O)NCCN4CCCC4)cc3)c2)cc1,902
17,O=C(Nc1ccc(Oc2ccccc2)cc1)N[C@H]1CCN(Cc2ccc(OCCCN3CCCCC3)cc2)C1,179
18,COc1ccc(CCNCCCCCCNCCc2ccc(Cl)cc2)c(Cl)c1OC,825
19,CC(C)c1cccc(OCC2CCN(c3ncc(C(=O)Nc4ccccc4)cc3Cl)CC2)c1,1060
20,CCOc1ccc(OCCCON2C(=N)N=C(N)NC2(C)C)cc1,3.2
21,N#Cc1ccc2c(c1)CCN(CCC1CCC(NC(=O)c3cc4ccc(Br)cc4[nH]3)CC1)C2 (configuration not stated),756
22,COc1cccc(-c2ccc(O)c(CNCCc3cccc(F)c3)c2)n1,914
23,CC[C@H]1CN2CC[C@H]1C[C@@H]2[C@@H](OC(=O)c1ccc(Cl)cc1)c1ccnc2ccc(OC)cc12,922
24,Cc1cccc2nc(-c3ccc(-c4ccc(CN5CCC(C(N)=O)CC5)cc4)cc3)[nH]c12,932
25,Cc1ccoc1C(=O)Nc1cccc(-c2cccc(-c3nc4cccc(C)c4[nH]3)c2)c1,675

row,SMILES,XC50 [nM]
1,Nc1nc(N)c2c(ccc3c2ccn3Cc2ccc(F)cc2)n1,6.53
2,Cc1ccccc1C1CCN(C2CCC(NC(=O)/C=C/c3cccc(Cl)c3Cl)CC2)CC1 (configuration not stated),1030
3,Cc1cccc2nc(-c3cccc(-c4ccc(NC(=O)C5CCCO5)cc4)c3)[nH]c12 (configuration not stated),901
4,CCOC(=O)CC[C@H](NC(=O)c1ccc(NS(=O)(=O)c2ccc(-c3cnc(N)[nH]c3=O)cc2)cc1)C(=O)OCC,174
5,Cc1cc(C2CCN(CCCCNC(=O)c3ccc(-c4ccc(C(F)(F)F)cc4)cc3)CC2)c(C)cc1OCC#N,1010
6,CCOc1cc(Cc2cnc(N)nc2N)cc(OCC)c1OCC,284
7,COc1ccc(CNCc2ccccc2)cc1-c1ccc(S(=O)(=O)NCCN2CCCC2)cc1,824
8,O=C(CC(=O)C(F)(F)F)c1ccc2c(c1)OCO2,744
9,CC(=O)c1c(Cc2ccccc2Cl)c[nH]c1C,848
10,COc1ccc(CCn2c(=N)c(C(=O)NCc3ccccc3)cc3c(=O)n4ccccc4nc32)cc1,751
11,Cc1cccc2nc(-c3ccc(-c4ccc(NC(=O)Nc5ccc(F)c(F)c5F)cc4)s3)[nH]c12,176
12,COc1ccc(Oc2ccc(-c3c(O)cc(C)nc3C)cc2)cc1,612
13,CC1(C)NC(N)=NC(=N)N1OCCCOc1c(Cl)cc(Cl)cc1Cl,2.94
14,O=S(=O)(NCCN1CCCC1)c1ccc(-c2cccc(CNCc3ccc(F)cc3)c2)cc1,729
15,CCCCNC(=O)C(C)NC(=O)c1ccc(O)c(-c2ccc(Cl)c(Cl)c2)c1 (configuration not stated),823
16,COc1cc2c(Nc3ccc(Br)cc3F)ncnc2cc1OCC1CCN(C)CC1,770
17,Cc1ccc(C2(C)CN(CCCOc3cccc(-c4ccc(C(=O)NC(C)C)cc4)c3)CCO2)cc1 (configuration not stated),960
18,FC(F)(F)c1ccc2[nH]c(-c3cccc(-c4cccc(CN5CCN(c6ccncc6)CC5)c4)c3)nc2c1,158
19,O=C(/C=C/c1ccc(Cl)c(Cl)c1)NCC1CCC(CN2CCC(c3c[nH]c4ccccc34)CC2)CC1 (configuration not stated),356
20,Cc1c(S(=O)(=O)Nc2ccc3nccc(N4CC(C)NC(C)C4)c3c2)sc2ccc(Cl)cc12 (configuration not stated),1020
21,Cc1nc2c(Nc3nc(-c4ccncc4)cs3)ncnc2n1-c1ccccc1Cl,176
22,CCCc1cc(N2CCC(N3CCCC3)CC2)nc(Nc2ccc(Cl)cc2)n1,765

# From ChEMBL document CHEMBL1157539, “Thousands of chemical starting points for antimalarial lead identification” (Nature, 2010)
